From US9974745B2, “Encochleation methods, cochleates and methods of use” (RUTGERS, THE STATE UNIVERSITY OF NEW JERSEY, priority 2003, dated 2018) come the findings set out here.

SMILES strings stand for the structures.

The test system of one series is SKOV3 cells. Briefly: Interaction of ZnTPP-cochleates with SKOV3 cells, confocal fluorescence. It counts as cell-based. From the text:
Phase contrast light microscopy and confocal microscopy (Olympus) was used to image liposomal suspensions, cochleates and cells, with and without the aid of fluorescence, which can be used, e.g., to study cellular uptake and intracellular distribution of fluorescently labeled cochleates and cargo moieties. Confocal microscopy is particularly advantageous as it is a 3-dimensional digital imaging device that can be used to effectively view slices of cell culture. This allows verification of the presence of cochleate and other agents within a cell.
In order to study any interaction of the cochleates with cells, ZnTPP-cochleates and free ZnTPP (in solution with DMSO) were introduced to SKOV3 cell cultures, and imaged with fluorescence under a confocal microscope.
Cochleates were prepared with and without ZnTPP as described above, except that prior to introduction of the ZnTPP/solvent, liposomes were formed with 1% diolyl phosphatidylethanolamine (DOPE) liganded to pyrene (purchased Avanti). The DOPE was incorporated into the soy PS liposomes by dissolving both DOPE and lipid in solvent, drying the solvent to a film, and using an aqueous solution to form liposomes. Confocal images were taken at 1 and 24 hours after introduction to SKOV3 cells to study the uptake and any difference in the cellular distribution of cochleate/lipid and the ZnTPP. […]

Series [1] can be described thus: HPLC stability of TY in cochleates versus free TY in solution. It counts as physicochemical. The source says: HPLC was used to study the stability of the TY in the cochleates, by measuring the concentration of TY in TY-cochleates as compared to free, i.e., unencochleated TY in solution.
Another series deals with stomachs of rats. Put plainly: Gastric irritation (bleeding and ulcerations) in rats. It counts as in vivo, rat. To be noted: stomachs examined 4 hours post carrageenan injection; samples 2, 3, 7 and 9. The protocol: A carrageenan model was employed to study the effect of anti-inflammatory cochleates on edema in rat paws. Various aspirin cochleates of the invention were used to treat carrageenan-induced rat paw edema. […] Additionally, rats in all groups were examined for gastric irritation.
Samples 6-10 were prepared in accordance with Example 16, except that the lipid:aspirin molar ratio was 5:1 and soy PS was used instead of DOPS. Samples 4, 5, and 11 were prepared in a similar manner in the absence of a cargo moiety. In all cases, water was used in lieu of TES buffer. All samples were given by oral gavage at 1 hour prior to injection of carrageenan on Day 0 in a volume of 3 mL of 0.5% methylcellulose. […] Volumes of rat paw (in ml) were measured prior to carrageenan injection using a semi-automated plethysmograph (Buxco). At 0 time, 0.1 ml of 1% carrageenan in 0.9% pyrogen free saline was injected into the right hind paw of the rat. The paw volumes (in ml) were measured again 3 hours post carrageenan injection to determine inhibition of paw edema. Four rats from each of groups 2, 3, 6, 7, 8, 9 and 10 and one rat from each of groups 1, 4, 5 and 11 were bled (intravenously, jugular vein, approximately 1 ml blood) at 30 minutes and 4 hours post drug administration. Blood was collected in heparinized vacutainers. […]

Turning to `C1=Cc2nc1c(-c1ccccc1)c1ccc([n-]1)c(-c1ccccc1)c1nc(c(-c3ccccc3)c3ccc([n-]3)c2-c2ccccc2)C=C1.[Zn+2]` [free ZnTPP, Zinc Tetra-Phenyl Porphyrin], the “degradation of ZnTPP in SKOV3 cell culture” value in the series on SKOV3 cells (at 24 hours) is on record as “significant degradation”. Besides, the “uptake by SKOV3 cells” value in the series on SKOV3 cells (confocal fluorescence images at 1 hour and 24 hours) was “high uptake”.
`COc1cc(/C=C(\C#N)C(N)=O)cc(CSc2nc3ccccc3s2)c1O` [free TY, Tyrphostin AG-825]: the “concentration of degradation products (impurity 1 and impurity 2) over time” value in series [1] is on record as “degraded over time”. The “TY concentration over time (stability)” value in series [1] (cochleates versus free TY in solution) is recorded as “decreased to zero”.
With `COc1ccc2c(c1)c(CC(=O)O)c(C)n2C(=O)c1ccc(Cl)cc1` [indomethacin], the “incidence and level of severity of gastric irritation” value with stomachs of rats was “greatest gastric irritation”.
The same measure, in the same setting: in the case of `CC(=O)Oc1ccccc1C(=O)O` [unencochleated aspirin, aspirin] it was “greatest gastric irritation, followed by unencochleated aspirin”.
